Assay results: patent US6586441B2, “Adenosine receptor ligands and their use in the treatment of disease” (Hoffman-La Roche Inc., priority 2000, dated 2003)

Biological target: T1, human adenosine A2A receptor (Homo sapiens, UniProt P29274)
T1 construct: expressed in transfected cells; host or cells: CHO cells, semliki forest virus expression system; membrane preparation
Test: Human adenosine A2A receptor [3H]-SCH-58261 binding assay
Conditions: human A2a receptor, membranes of CHO cells, [3H]-SCH-58261; read-out: pKi (affinity to the human A2a receptor) (converted)
Description: The gene encoding human adenosine A2A receptor was recombinantly introduced and expressed in chinese hamster ovary (CHO) cells using the semliki forest virus expression system. Cells were harvested, washed twice by centrifugation, homogenised and again washed by centrifugation. The final washed membrane pellet was suspended in a Tris (50 mM) buffer containing 120 mM NaCl, 5 mM KCl, 2 mM CaCl2 and 10 mM MgCl2 (pH 7.4) (buffer A). The [^3H]-SCH-58261 (Dionisotti et al., 1997, Br. J. Pharmacol. 121, 353; 1 nM) binding assay was carried out in 96-well plates in the presence of 2.5 μg of membrane protein, 0.5 mg of Ysi-poly-1-lysine SPA beads and 0.1 U adenosine deaminase in a final volume of 200 μl of buffer A. Non-specific binding was defined using xanthine amine congener (XAC; […]). Compounds were tested at 10 concentrations from 10 μM-0.3 nM. All assays were conducted in duplicate and repeated at least two times. Assay plates were incubated for 1 hour at room temperature before centrifugation and then bound ligand determined using a Packard Topcount scintillation counter. IC50 values were calculated using a non-linear curve fitting program and Ki values calculated using the Cheng-Prussoff equation.

T1 sequence (P29274 whole entry): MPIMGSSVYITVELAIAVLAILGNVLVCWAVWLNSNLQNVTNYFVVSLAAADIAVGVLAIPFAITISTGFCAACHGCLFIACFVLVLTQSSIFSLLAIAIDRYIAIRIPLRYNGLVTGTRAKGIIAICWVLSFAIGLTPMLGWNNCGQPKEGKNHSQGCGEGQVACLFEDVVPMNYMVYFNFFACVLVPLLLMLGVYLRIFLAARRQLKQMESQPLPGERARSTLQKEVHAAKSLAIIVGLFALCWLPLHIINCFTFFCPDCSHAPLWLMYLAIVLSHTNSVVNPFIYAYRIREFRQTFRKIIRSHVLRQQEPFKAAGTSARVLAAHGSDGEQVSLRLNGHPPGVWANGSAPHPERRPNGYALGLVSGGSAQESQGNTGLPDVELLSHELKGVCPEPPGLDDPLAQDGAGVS

Row | SMILES | Ki [nM]
1 | Nc1nc(OCC=Cc2ccccc2)c(Br)c(-c2ccco2)n1 [Example 280, 5-Bromo-4-furan-2-yl-6-(3-phenyl-allyloxy)-pyrimidin-2-yl-amine] | 9.33
2 | N#Cc1c(SCc2ccccn2)nc(N)nc1-c1ccco1 [Example 284, 2-Amino-4-furan-2-yl-6-(pyridin-2-ylmethylsulfanyl)-pyrimidine-5-carbonitrile] | 3.89
3 | Nc1nc(OCc2ccccc2)c([N+](=O)[O-])c(-c2ccco2)n1 [Example 286, 4-Benzyloxy-6-furan-2-yl-5-nitro-pyrimidin-2-yl-amine] | 9.55
4 | N#Cc1c(SCCc2ccccn2)nc(N)nc1-c1ccco1 [Example 313, 2-Amino-4-furan-2—,yl-6-(2-pyridin-2-yl-ethylsulfanyl)-pyrimidine-5-carbonitrile] | 0.832
5 | Nc1nc(OCCCc2ccccc2)c(Cl)c(-c2ccco2)n1 [Example 321, 5-Chloro-4-furan-2-yl-6-(3-phenyl-propoxy)-pyrimidin-2-yl-amine] | 2.82
6 | Nc1nc(OCCc2ccccc2)c(Cl)c(-c2ccco2)n1 [Example 322, 5-Chloro-4-furan-2-yl-6-phenethyloxy-pyrimidin-2-yl-amine] | 9.77
7 | Nc1nc(SCc2ccccc2)c(Cl)c(-c2ccco2)n1 [Example 324, 4-Benzylsulfanyl-5-chloro-6-furan-2-yl-pyrimidin-2-yl-amine] | 9.12
8 | N#Cc1c(-c2ccco2)nc(N)nc1N1CCc2ccccc2C1 [Example 336, 2-Amino-4-(3,4-dihydro-1H-isoquinolin-2-yl)-6-furan-2-yl-pyrimidine-5-carbonitrile] | 8.13
9 | N#Cc1c(NCc2ccc3c(c2)OCO3)nc(N)nc1-c1ccco1 [Example 337, 2-Amino-4-[(benzo [1,3]dioxol-5-ylmethyl)-amino]-6-furan-2-yl-pyrimidine-5-carbonitrile] | 6.61

The remaining lines, values ahead:

Row | Ki [nM] | SMILES
10 | 5.89 | N#Cc1c(NCc2ccccn2)nc(N)nc1-c1ccco1 [Example 283, 2-Amino-4-furan-2-yl-6-[(pyridin-2-ylmethyl)-amino]-pyrimidine-5-carbonitrile]
11 | 3.72 | Cc1cccc(CNc2nc(N)nc(-c3ccco3)c2C#N)c1 [Example 289, 2-Amino-4-furan-2-yl-6-(3-methyl-benzylamino)-pyrimidine-5-carbonitrile]
12 | 3.31 | COc1cccc(CNc2nc(N)nc(-c3ccco3)c2C#N)c1 [Example 291, 2-Amino-4-furan-2-yl-6-(3-methoxy-benzylamino)-pyrimidine-5-carbonitrile]
13 | 3.72 | COc1ccccc1CNc1nc(N)nc(-c2ccco2)c1C#N [Example 293, 2-Amino-4-furan-2-yl-6-(2-methoxy-benzylamino)-pyrimidine-5-carbonitrile]
14 | 1.38 | N#Cc1c(NCc2ccc3ccccc3n2)nc(N)nc1-c1ccco1 [Example 297, 2-Amino-4-furan-2-yl-6-[(quinolin-2-ylmethyl)-amino]-pyrimidine-5-carbonitrile]
15 | 7.76 | N#Cc1c(NCCSc2ccccc2)nc(N)nc1-c1ccco1 [Example 302, 2-Amino-4-furan-2-yl-6-(2-phenylsulfanyl-ethylamino)-pyrimidine-5-carbonitrile]
16 | 3.55 | N#Cc1c(NCc2ccccc2N)nc(N)nc1-c1ccco1 [Example 304, 2-Amino-4-(2-amino-benzylamino)-6-furan-2-yl-pyrimidine-5-carbonitrile]
17 | 8.91 | N#Cc1c(NCc2ccc(N)cc2)nc(N)nc1-c1ccco1 [Example 305, 2-Amino-4-(4-amino-benzylamino)-6-furan-2-yl-pyrimidine-5-carbonitrile]
18 | 9.77 | CN(C)c1ccc(CNc2nc(N)nc(-c3ccco3)c2C#N)cc1 [Example 312, 2-Amino-4-(4-dimethylamino-benzylamino)-6-furan-2-yl-pyrimidine-5-carbonitrile]
19 | 7.94 | N#Cc1c(NCCNc2ccccn2)nc(N)nc1-c1ccco1 [Example 330, 2-Amino-4-furan-2-yl-6-[2-(pyridin-2-ylamino)-ethylamino]-pyrimidine-5-carbonitrile]
